Series [1] can be described thus: Parallel artificial membrane permeability assay (PAMPA). It counts as in vitro ADME. (The PAMPA barrier holds no transporters, so it reflects passive diffusion.)
Series [2] in a line: In vivo pharmacokinetics in mice. Further details: species or system mouse. Conditions: 2 hours after IM administration, 1 mg/kg. On the procedure:
(A) Three mice each were administered 1 mg/kg agonist IV, IP, or IM. Graphs are mean plasma concentration for each administration route. (B) Results for individual mice were administered 1 mg/kg indicated agonist IM.

The target in the next series is P-gp/MDR1 (Homo sapiens, UniProt P08183). The experiment in a line: P-gp/MDR1 transport. It counts as in vitro ADME.
Chain of P-gp/MDR1 (P08183 whole entry): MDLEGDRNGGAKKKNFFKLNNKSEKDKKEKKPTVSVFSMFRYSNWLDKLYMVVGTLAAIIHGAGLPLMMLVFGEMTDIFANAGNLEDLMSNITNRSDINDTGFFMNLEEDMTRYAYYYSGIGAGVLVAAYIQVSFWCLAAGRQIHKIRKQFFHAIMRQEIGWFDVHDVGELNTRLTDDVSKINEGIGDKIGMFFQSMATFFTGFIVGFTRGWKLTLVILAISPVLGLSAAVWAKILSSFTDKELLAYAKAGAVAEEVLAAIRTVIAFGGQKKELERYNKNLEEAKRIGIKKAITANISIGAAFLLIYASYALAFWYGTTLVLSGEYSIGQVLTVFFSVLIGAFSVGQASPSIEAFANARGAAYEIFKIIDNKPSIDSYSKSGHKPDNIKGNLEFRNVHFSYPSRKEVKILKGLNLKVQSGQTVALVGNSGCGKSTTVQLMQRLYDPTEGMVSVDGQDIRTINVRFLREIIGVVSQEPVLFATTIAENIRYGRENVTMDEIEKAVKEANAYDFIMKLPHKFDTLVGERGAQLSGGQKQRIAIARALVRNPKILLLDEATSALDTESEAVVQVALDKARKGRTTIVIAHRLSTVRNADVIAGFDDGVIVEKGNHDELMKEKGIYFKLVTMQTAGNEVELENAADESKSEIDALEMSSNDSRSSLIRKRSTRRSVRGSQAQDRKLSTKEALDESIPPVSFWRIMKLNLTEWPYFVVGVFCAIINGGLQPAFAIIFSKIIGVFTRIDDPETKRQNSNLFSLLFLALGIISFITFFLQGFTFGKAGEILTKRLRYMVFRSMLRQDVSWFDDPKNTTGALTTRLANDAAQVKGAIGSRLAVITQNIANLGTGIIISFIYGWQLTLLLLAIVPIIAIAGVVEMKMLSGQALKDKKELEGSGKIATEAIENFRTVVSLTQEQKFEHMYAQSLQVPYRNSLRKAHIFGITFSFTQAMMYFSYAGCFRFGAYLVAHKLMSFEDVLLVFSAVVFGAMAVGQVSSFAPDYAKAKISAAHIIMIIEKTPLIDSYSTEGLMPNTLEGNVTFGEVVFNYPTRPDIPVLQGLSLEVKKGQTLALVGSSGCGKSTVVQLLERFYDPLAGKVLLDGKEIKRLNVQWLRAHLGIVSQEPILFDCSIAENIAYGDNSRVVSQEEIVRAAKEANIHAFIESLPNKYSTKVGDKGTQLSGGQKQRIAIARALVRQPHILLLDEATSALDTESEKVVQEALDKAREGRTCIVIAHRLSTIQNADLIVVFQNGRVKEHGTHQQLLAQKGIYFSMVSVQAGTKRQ

For `CC1CCCCC1NC(=O)NCCCc1nnc(C2CC2)n1-c1ccccc1` (stereo not drawn) [Regeneurin-C, 1-(3-(5-cyclopropyl-4-phenyl-4H-1,2,4-triazol-3-yl)propyl)-3-(2-methylcyclohexyl)urea], in series [1], the “passive diffusion across lipid-infused artificial membrane (PAMPA), in words” value is given as “excellent passive diffusion”. In addition, in series [2], the “total plasma drug concentration” value is “undetectable”. In addition, the “P-gp/MDR1 transport, in words” value on P-gp/MDR1 is recorded as “actively transported by P-gp/MDR1”.

These data come from patent publication US11760733B2, “Small molecule regulators of mitochondrial fusion and methods of use thereof” (Washington University, priority 2017, dated 2023).
